row,Compound,melting point
1,CCCc1nc(NCc2ccccn2)nc(Nc2cccc(C(C)C)c2)n1,103 to 104 °C
2,CCOC(=O)C=Cc1cccc(C(=O)c2ccc(OC)cc2)c1,71 to 71.5 °C
3,CNC(=O)NS(=O)(=O)c1cc2c(cc1OC)OCCC2CNC(=O)c1cc(F)ccc1OC (configuration not stated),193 to 194 °C
4,CNC(=O)NC(=O)C(CC1CCCC1)c1ccc(-c2cccc3ccccc23)cc1 (configuration not stated),85 to 88 °C
5,COc1ccc(Br)cc1-c1ccc2nonc2c1,135 to 137 °C
6,O=C(O)COc1ccc(C(=CC(=O)NCc2cccnc2)c2ccccc2)cc1,187 to 189 °C
7,COc1cc(COc2nn(-c3ccccc3)cc2/C=C\c2csc(C)n2)ccc1OCc1nc(-c2ccco2)oc1C,111 to 112 °C
8,COCCOCCOc1ccc2c(c1)S(=O)(=O)N(Cc1ccccc1)C2=O,86 to 88 °C
9,Oc1ccc(-c2ncc3ncc(-c4ccncc4)cc3n2)cc1,> 268 °C
10,Cn1c(=O)[nH]c(=O)n(-c2cc(O)ccc2Br)c1=O,265 to 270 °C
11,COC(=O)C1=C(C)NC(C)C(C(=O)OC)=C1c1cc(Cl)ccc1COCc1ccccc1 (configuration not stated),156 to 158 °C
12,CNC(=O)N(O)C(C)c1ccc(C#Cc2ccccc2)cc1 (configuration not stated),138 to 141 °C
13,Cn1c2cccc(Br)c2c2nc3ccccc3nc21,208 to 209 °C
14,COc1cc(Nc2nccc(-c3cccnc3)n2)ccc1-n1cnc(C)c1,204 to 206 °C
15,CCC=CCn1c(C)c(C)c2cnnc(OCc3ccccc3)c21,92 to 93 °C
16,CC1=C(C)C(=O)C(CCCCO)=C(C)C1=O,36 to 38 °C
17,CC1(C)CCC(C)(C)c2cc(NCc3ccc(C(=O)O)cc3)ccc21,225 to 231 °C
18,O=C(N[C@H]1CC[C@H](O)CC1)c1cc(F)cnc1Cl,197 to 200 °C
19,COC(=O)CC1CCc2cc(O)ccc2C1=O (configuration not stated),121 to 123 °C
20,C#Cc1cnc(OCCC)c(-c2nc3c(CC)nn(CCN4CCOCC4)c3c(=O)[nH]2)c1,137 to 139 °C
21,N#Cc1cc(/C=C/C(c2cc(Cl)c(Cl)c(Cl)c2)C(F)(F)F)ccc1-n1cnc(NC(=O)C2CC2)n1 (configuration not stated),109 to 112 °C
22,ClCOc1ccc2ccccc2c1,70 °C
23,CNC(=O)C1CN(C(c2ccccc2)c2ccccc2)C1,103 to 107 °C
24,S=c1nc(-c2ccc(Br)cc2)[nH]n1Cc1ccccc1,250 to 251 °C
25,CSCc1nc(C)c(C)c(O)n1,166 °C

row,Compound,melting point
1,COc1nc(NS(=O)(=O)c2ccccc2Cl)nc(OC)n1,137 °C
2,CCc1cc(SCc2cccc3oc(-c4ccc(C(F)(F)F)cc4)nc23)ccc1OCC(=O)O,127 to 128 °C
3,O=S(=O)(Nc1cccc2cc(-c3nccs3)[nH]c12)c1cccs1,164 to 165 °C
4,CCOC(=O)N1CCc2nc3cccc(Cl)c3c(C)c2CC1,138 °C
5,CC(=O)c1c(CCN2CCN(C)CC2)nc(-c2ccccc2)nc1-c1cccc([N+](=O)[O-])c1,88 to 91 °C
6,CC(C(=O)O)c1ccc(C(=O)c2ccc(Cl)cc2)n1C (configuration not stated),139 to 141 °C
7,O=C(Nc1nc2ccc(Sc3nnc4ccc(-c5cccc(F)c5)cn34)cc2s1)C1CC1,> 260 °C
8,CS(=O)(=O)c1ccc(-n2nc(C(F)(F)F)cc2-c2ccc(-c3cscn3)c(F)c2)cc1F,156 to 158 °C
9,COc1cc(C(=O)/C=C/c2c(-c3ccc(F)cc3)nc3sccn23)cc(OC)c1OC,222 to 225 °C
10,CC(C)Cn1c(CO)c(-c2ccccc2F)c2cc(OCc3ccccc3)ccc2c1=O,191 to 192 °C
11,O=C1CCCc2cc(S(=O)(=O)c3ccccc3)ccc21,121 °C
12,CN(C(=O)C(F)(F)F)c1cnn(-c2cccc(C(F)(F)F)c2)c(=O)c1-c1cccc(C(F)(F)F)c1,122 °C
13,O=C(NCCO)c1cc(-c2cccc3cc(Cc4cccc(C(F)(F)F)c4)sc23)ncc1F,110 to 111 °C
14,O=C1CCC(N2C=Nc3ccccc3C2)C(=O)N1 (configuration not stated),258 °C
15,O=c1c2cn(S(=O)(=O)CCCCl)nc2n(CC2CC2)c(=O)n1CC1CC1,95 to 97 °C
16,COc1ccc2c(n1)C(=O)c1nccc3c1c-2nc1ccccc13,> 260 °C
17,Oc1cc2c(cc1-c1nc3cc(Cl)ccc3o1)oc1ccccc12,244 to 246 °C
18,O=C(NC1=NCCS1)c1c(C(F)(F)F)nc(-c2ccccc2)c(-c2ccccc2)c1O,280 °C
19,CC1(C)CCC(C)(C)c2c(CO)cc(-c3ccccc3)cc21,80 to 82 °C
20,COc1ccc(C(=O)Nc2ccc(F)c(F)c2)cc1NS(=O)(=O)c1cccc(N)c1,212 to 214 °C
21,CCCCCCCCCCCCCCc1ccc(N(CC(=O)OC)CC(=O)OC)cc1,160 to 165 °C
22,CC(C)(C)n1ncc(SCc2ccc(Cl)cc2)c(Cl)c1=O,142 to 143 °C
23,CCC1=C(C#N)C(c2cccc(C#N)c2Cl)c2c[nH]nc2N1 (configuration not stated),> 300 °C
24,CC(=O)OC1CSC(Oc2cccnc2-c2ccco2)C(OC(C)=O)C1OC(C)=O (configuration not stated),160 °C
25,FC(F)(F)Oc1ccc2nc(Cc3ccc4c(c3)CCCC4)[nH]c2c1,88 to 90 °C

row,Compound,melting point
1,O=C(O)c1ccccc1N1C(=O)c2cccc([N+](=O)[O-])c2C1=O,190 to 192 °C
2,CC1(CCN2C(=O)SC(=Cc3ccc(C(F)(F)F)cc3)C2=O)Cn2cc([N+](=O)[O-])nc2O1 (configuration not stated),257 to 258 °C
3,CCCCCCc1cc2c(cc1C(=O)Oc1ccc(C(=O)O)cn1)C(C)(C)CC2,104 to 105 °C
4,CCCc1nc2c(C)ccnc2n1Cc1ccc(-c2ccncc2-c2nnn[nH]2)cc1,110 to 112 °C
5,C[C@H]1C[C@@H](Nc2ccccc2)c2ccccc2N1C(=O)c1ccncc1 (relative stereo),121 °C
6,Nc1nc(O)c2c(n1)NCC(CCc1nc(C(=O)N[C@@H](CCC(=O)O)C(=O)O)cs1)C2 (some centres not stated),210 to 212 °C
7,SCCNc1nc(-c2ccccc2)c2cc(Cl)ccc2n1,166 °C
8,CCOC(=O)c1c(N[C@H]2CC[C@@H](c3ccccc3)CC2)ccnc1C,191 °C
9,BrCCCCCCC1(CCCCCCBr)c2cc(Br)ccc2-c2ccc(Br)cc21,68 °C
10,CCOC(=O)CN(Cc1cc(F)ccc1F)S(=O)(=O)c1ccc(N2CCC(NC[C@H](O)c3ccc(O)c(NS(C)(=O)=O)c3)CC2)cc1,85 to 90 °C
11,O=C(c1ccc(Cl)cc1)c1c(N2C(=O)c3ccccc3C2=O)sc(Br)c1CN(C1CCCCC1)C1CCCCC1,173 to 175 °C
12,Cc1ccc(CNc2cccc3c2CN(C2CCC(=O)NC2=O)C3=O)o1 (configuration not stated),242 to 244 °C
13,CCCCCCCCCCCCCCCCNC(=O)NCCCN(C)C,78 to 79 °C
14,COc1cccc(OC)c1-c1cc(C(=O)NC2(C(=O)O)C3CC4CC(C3)CC2C4)nn1-c1ccc(C#N)c2ccccc12 (configuration not stated),290 °C
15,COC1=C(OC)C(=O)C2=C(CCC(CCOc3ccc(OC)cc3)CC2)C1=O,76 to 77 °C
16,CCCc1nc2c(N)nc3cc(OCCN4CCOCC4)ccc3c2s1,122 to 125 °C
17,CCC1(CC)C(=O)N(c2ccc(C#N)c(C(F)(F)F)c2)C(=S)N1C,126 to 127 °C
18,NC1=NN(c2ccccc2)C(c2ccc(Cl)cc2)C1 (configuration not stated),184 to 186 °C
19,CN1CCN(c2c(Br)cc3c4c(cccc24)C(=O)N(O)C3=O)CC1,184 to 186 °C
20,O=C(O)COCCCCSc1cnc(-c2ccccc2)c(-c2ccccc2)n1,86 to 88 °C
21,CCCN1CCCC1CNC(=O)c1cc(S(N)(=O)=O)cc2c1OC(C)C2 (configuration not stated),177 to 180 °C
22,Cc1nc(-c2ccc(N(C)C)cc2)sc1C(=O)O,226 to 231 °C
23,CC(=O)N[C@H](COC(F)F)C(=O)NCc1ccc(F)cc1,163 °C
24,COC(=O)c1ccc(OCCC2CCN(c3cc(Cl)nnc3Cl)CC2)cc1,115 to 117 °C
25,CCOC(=O)c1c(C(C)C)nc(-c2ccccc2)c(-c2ccccc2)c1-c1ccc(F)cc1,135 to 136 °C

row,Compound,melting point
1,CCn1c(COC(N)=O)nc(C(C)C)c1Sc1cc(C#N)cc(C#N)c1,174 to 175 °C
2,C=CC(=O)Nc1csc(Br)n1,152 to 154 °C
3,Cc1ccc(-c2c(Cl)nc(-c3ccccc3)nc2NS(=O)(=O)c2ccc(C(C)(C)C)cc2)cc1,249 to 250 °C
4,CC(C)(CO)NS(=O)(=O)c1cccc(NC(=O)c2cnn3c(C(F)(F)F)cc(-c4ccc(C(F)(F)F)c(Cl)c4)nc23)c1,251 °C
5,OCc1cn(-c2ccc(Cl)cn2)cn1,82 to 87 °C
6,CN(C1CCN(CCC(F)(F)F)CC1)S(=O)(=O)c1ccc(Nc2nccc(Nc3ccc(F)cc3)n2)cc1,195 to 196 °C
7,CP(C)(=O)CN1CCC(c2nn(-c3ccc(C(F)(F)F)cc3)c3ccccc23)CC1,158 to 160 °C
8,CCCCNS(=O)(=O)c1cc(C(=O)O)cc(N)c1Sc1ccc(NC(C)=O)cc1,228 to 229 °C
9,COC(=O)C1(NC(=O)Cc2cc(-c3ccc(Cl)cc3)ccc2Cl)CCCC(C(F)(F)F)C1 (configuration not stated),148 °C
10,CC(C)(C)c1cc(C(=O)Nc2ccccc2C(=O)O)cc(C(C)(C)C)c1O,202 to 203 °C
11,O=c1cc(CBr)c2ccc(O)cc2o1,182 to 184 °C
12,O=c1ccc2c(CO)nccc2[nH]1,294 to 300 °C
13,Cc1nc(-n2cnn(Cc3ccc(F)cc3)c2=O)sc1C#N,190 to 192 °C
14,CC1(C)CC(NC(=O)Nc2ccccc2)c2cc(C#N)ccc2O1 (configuration not stated),214 to 215 °C
15,CN1C(=O)C=C(c2c[nH]c3ncccc23)C1=O,> 250 °C
16,N#CC=C1c2ccccc2C=Cc2ccccc21,137 to 138 °C
17,O=C(O)C[C@H](NC(=O)CNC(=O)c1csc(NC(=O)NCc2ccccn2)n1)C(=O)NCc1ccccn1,164 °C
18,CC(C)(C)c1cc(C(=O)NNC(N)=S)cc(C(C)(C)C)c1O,210 to 211 °C
19,CCS(=O)c1ccccc1S(=O)(=O)NC(=O)Nc1nc(OC)nc(OC)n1 (configuration not stated),165 °C
20,Cc1nc2cc(NC(=O)c3ccc(Cl)cc3Cl)ccc2n1C,275 to 277 °C
21,CCCC1=C(C(=O)OCC)C(c2ccccc2Cl)c2c[nH]nc2N1 (configuration not stated),202 to 205 °C
22,COc1cc2cc(C#N)c(Cl)nc2cc1OC,224 °C

# Source: a melting point compilation (Tetko et al.; mined from patent text by program, amines drawn as free bases though some values may be those of a salt)
